Test results: patent US20160228444A1, “NUCLEOSIDE ANALOGS AND USES THEREOF” (Ramot at Tel-Aviv University Ltd., priority 2015, published 2016)

Experiments:
H9C2 cardiomyoblasts = assay type: cell-based, rat
Description: Cell viability by flow cytometry analysis (FACS) analysis was determined using the Mebcyto apoptosis kit (MBL-Japan). The cell lines 4T1, U251 (2×10^5 cells/well), astrocytes and the cardiomyoblastic cell line H9C2 (5×10^5 cells/well) were seeded in six-well plates. Following treatment they were trypsinized, washed with PBS, resuspended in […] of binding buffer and double-stained with annexin V-FITC and propidium iodide (PI) according to the manufacturer's instructions. The stained cells were subjected to FACS analyses (Calibur cytometer, Becton Dickinson) where 30,000 cells were allowed to flow for each determination point and the percentage of cells in each state (viability or death) was defined by their distribution in fluorescence dot-plots using WinMdi 2.8 software (Scripps Research Institute, La-Jolla, USA).
The apoptotic effect of AN446, Dox and their combination was evaluated in U251 and 4T1 cancer cells, and in the non-cancerous rat cardiomyoblast cell line (H9C2) and in primary rat astrocytes, using procedures previously described for AN7 [Tarasenko et al., Invest New Drugs 2012, 30:130-143].

H9C2 cells = experiment: ROS production (DCF-DA, flow cytometry); assay type: cell-based, rat; conditions: FIG. 1D
Description: (§1) ROS were measured in live cells by monitoring the oxidation of DCF-DA (a cell-permeable probe), which undergoes deacetylation by cellular esterases and fluoresces upon oxidation by ROS. U251 MG (2×10^5 cells/six-well plates), astrocytes or H9C2 (5×10^5 cells/six-well plates) were treated as specified, incubated with […] DCF-DA for 30 min at 37° C., washed with PBS and analyzed (10^4 cells) by flow cytometry using a 488 nm excitation beam (Calibur cytometer, Becton Dickinson). The percentage of cells stained positively for DCF was determined with CellQuest software (BD Biosciences, San Jose, Calif., USA).
(§2) To gain insights into the mechanism of cell-type specific effects, ROS production in cancer cells and in non-cancer cells after treatment for 5-6 h with AN446, Dox and AN446+Dox, were assessed by staining the cells with the membrane-permeable fluorescent dye DCF-DA.

astrocytes = experiment: ROS production (DCF-DA, flow cytometry); assay type: cell-based, rat; conditions: FIG. 1D
Description: as §1, §2

VEGF = VEGF immunohistochemistry in tumor and heart of xenograft mice; assay type: in vivo; conditions: FIG. 4F
Description: The pro-angiogenic factors basic fibroblast growth factor (bFGF) and vascular endothelial growth factor (VEGF) are potent angiogenic stimulators. The expression of bFGF in the tumor and in the heart was evaluated by Western blot and qRT-PCR analyses and expression of VEGF by IHC.

c-Myc = c-Myc and p-c-Myc (Thr 58) Western blot in tumor and heart of xenograft mice; assay type: in vivo
Description: Protein levels in the samples were determined with the BCA protein assay kit (Pierce). The samples were subjected to Western blot analyses. The expression of proteins was visualized using their specified primary antibodies followed by the secondary IgG IRDye® 680DX antibody. Each detected band was quantified using the Odyssey Infrared Imaging System (LI-COR Biosciences) and normalized to the level of actin. The fold increase of a specific protein was determined by the ratio of the band intensity obtained from treated and untreated samples.
The c-Myc protein is an important regulator of normal cell physiology and in tumor cells it plays an important role in activating oncogenic pathways [Soucek & Evan, Curr Opin Genet Dev 2010, 20:91-95].

IL-6 = IL-6 in supernatant of LPS-treated THP1 cells (ELISA); assay type: cell-based; conditions: 1 μg/ml LPS, AN446 20 or 40 μM, FIG. 7B
Description: (§3) The effect of AN446 on inflammation-associated pathways was evaluated in the monocytic THP1 cell line and in the MDA-MB-231 breast carcinoma cell line. Supernatants of treated THP1 cells were collected and IL-6, IL-10 and TNF-α concentrations were quantified by ELISA (R&D systems). TLR4 expression in THP1 cells was assessed using fluorescent anti-TLR4 antibodies and FACS analysis. In addition, gene expression for MCP-1, TNF-α and TLR4 in MDA-MB-231 was evaluated by qRT-PCT, following treatment with AN446 and/or paclitaxel.

TLR4 [1] = experiment: TLR4 gene expression in MDA-MB-231 cells (qRT-PCR); assay type: cell-based, human; conditions: FIG. 7C
Description: as §3

TNF-α = TNF-α gene expression in MDA-MB-231 cells (qRT-PCR); assay type: cell-based, human; conditions: combination with paclitaxel, FIG. 7C
Description: as §3

fibrous collagen = experiment: Fibrosis in tumor, heart and kidney of U251 xenograft mice (Picrosirius Red / Fast Green); assay type: in vivo
Description: AN446 was tested in vivo using a xenograft of glioblastoma (U251 cells) in mice.

[2] = test system: peripheral blood lymphocytes (PBLs) from healthy volunteers; experiment: MTT cell viability assay, 48 hours; assay type: cell-based; conditions: Homo sapiens, Lymphocyte, read-out: IC50 PBL
Description: The MyLa CTLC cell line (originating from an indolent mycosis fungoides patient) and the Hut-78 CTLC cell line (originating from an aggressive Sézary patient) were used to evaluate toxicity towards cancer cells, and peripheral blood lymphocytes (PBLs) from healthy volunteers were used to evaluate toxicity towards noncancerous cells.
Cell viability was determined by an MTT cell viability assay after 48 hours. MyLa cells (10^4 cells/well), Hut78 cells (5×10^3 cells/well) and normal PBLs (10^5 cells/well) were seeded in 96 well-plates. The PBLs were activated with 40 μg/10^6 cells of phytohemagglutinine (PHA) for 24 h before the experiment.

pH2AX in U251 cells = experiment: Phosphorylated H2AX (Western blot), 24 or 48 hours; assay type: cell-based, human; conditions: FIG. 13A
Description: The effects of the abovementioned HDAC inhibitors on DNA damage and repair were then assessed by evaluating changes in levels of phosphorylated histone H2AX (pH2AX), a marker of DNA double-strand breaks, and Rad51, a marker of homologous recombination-guided DNA repair of double-strand breaks [Nagathihalli & Nagaraju, Biochim Biophys Acta 2011, 1816:209-218; Rogakou et al., J Biol Chem 1998, 273:5858-5868].
U251 and H9C2 cells were treated with the HDAC inhibitors for 24 or 48 hours, and then subjected to Western blot analysis.

U251 cells = experiment: Hoechst viability assay 72 h / median-effect combination study; conditions: Homo sapiens, U-251, 72 h, read-out: IC50 value for viability in U251 cells after 72 hours
Description: Hoechst assay: 22RV-1, MCF-7, MCF-7DX, 4T1, U251, and T47D cells (3×10^3 cells/well) and NCI-N87 (8×10^3 cells/well) were seeded in tissue culture in growth medium for 24 h in 96-well plates (in triplicate) and then exposed to different concentrations (titration) of the tested drug for 72 h at 37° C. The plates were then rinsed with PBS and fixed with 100 ml of 70% ethanol for 30 min. […] The fluorescence was measured (excitation at 390 nm and emission at 460 nm) with a Synergy III Fluorometer-Elisa reader (BioTek Instruments, Inc. Germany).
The Median Effect Analysis (MEA) for a constant combination ratio was used for drugs interaction and the combination index (CI) determination.
The average values of three independent experiments were calculated and analyzed with CalcuSyn software.

TLR4 [3] = conditions: 24 hours, concentrations based on the IC50, FIG. 15

CCCC(CCC)C(=O)Nc1nc2c(ncn2COCCOC(=O)C(CCC)CCC)c(=O)[nH]1 [AN446, N-valproyl-9-(2-valproyloxy)ethoxymethyl-guanine]
cell death in H9C2 cardiomyoblasts (H9C2 cardiomyoblasts; 24, 48 or 72 hours, each inhibitor at its U251 IC50, FIG. 10): did not induce significant cardiomyocyte cell death | viability / mortality of H9C2 cells (H9C2 cardiomyoblasts; noncancerous cells, combination compared to Dox alone, FIG. 1C): did not substantially affect the viability | ROS production and mortality in Dox-treated H9C2 cells (H9C2 cells; added to 200 nM Dox): attenuated ROS production and mortality | ROS production in H9C2 cells (H9C2 cells; single agent): did not induce ROS production | ROS production and mortality in Dox-treated astrocytes (astrocytes; added to 200 nM Dox): attenuated ROS production and mortality | ROS production in astrocytes (astrocytes; single agent): did not induce ROS production | VEGF expression in the heart (VEGF): elevated | c-Myc protein expression in the hearts (c-Myc; heart, FIG. 5B): significantly increased its expression to a level higher than in naive or vehicle-treated mice | c-Myc protein expression in tumors (c-Myc; tumor, FIG. 5A): decreased dramatically | LPS-induced expression of IL-6 (IL-6): suppressed | paclitaxel-induced increase in expression of TLR4 (TLR4 [1]; combination with paclitaxel): significantly attenuated | expression of TLR4 (TLR4 [1]; single agent): reduced expression of TLR4 | paclitaxel-induced increase in expression of TNF-α (TNF-α): significantly attenuated | doxorubicin-induced fibrosis in the heart (fibrous collagen; heart, co-administration with doxorubicin): attenuated the doxorubicin-induced fibrosis | doxorubicin-induced fibrosis in the kidneys (fibrous collagen; kidneys, co-administration with doxorubicin): attenuated the doxorubicin-induced fibrosis | fibrosis in the tumor (fibrous collagen; tumor, single agent, FIG. 8A): reduced fibrosis | IC50 [2]: 200 ± 3 µM | pH2AX levels in U251 cancer cells (pH2AX in U251 cells): considerably more effective than the other HDAC inhibitors at increasing pH2AX levels after 48 hours | IC50 (U251 cells): 20 µM | TLR4 expression in MDA-231 cells (TLR4 [3]): considerably more effective than valproic acid at repressing TLR4
